#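 A five-concentration, 48-hour dose response in 96-well plates underlies each endpoint, interpolated linearly between surrounding concentrations. GI50: concentration for 50% inhibition of growth. The concentration for full growth arrest is given as TGI.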
# How the values were obtained:
# Assay in all cases: NCI-60 cell line screen, 48 h
# 786-0 renal = test system: 786-0 renal
# A498 renal = test system: A498 renal
# A549 NSCLC = test system: A549 NSCLC
# ACHN renal = test system: ACHN renal
# BT-549 breast = test system: BT-549 breast
# CAKI-1 renal = test system: CAKI-1 renal
# CCRF-CEM leukemia = test system: CCRF-CEM leukemia
# COLO 205 colon = test system: COLO 205 colon
# DU-145 prostate = test system: DU-145 prostate
# EKVX NSCLC = test system: EKVX NSCLC
# HCC-2998 colon = test system: HCC-2998 colon
# HCT-116 colon = test system: HCT-116 colon
# HCT-15 colon = test system: HCT-15 colon
# HL-60(TB) leukemia = test system: HL-60(TB) leukemia
# HOP-62 NSCLC = test system: HOP-62 NSCLC
# HOP-92 NSCLC = test system: HOP-92 NSCLC
# HS 578T breast = test system: HS 578T breast
# HT29 colon = test system: HT29 colon
# IGROV1 ovarian = test system: IGROV1 ovarian
# K-562 leukemia = test system: K-562 leukemia
# KM12 colon = test system: KM12 colon
# LOX IMVI melanoma = test system: LOX IMVI melanoma
# M14 melanoma = test system: M14 melanoma
# MALME-3M melanoma = test system: MALME-3M melanoma
# MCF7 breast = test system: MCF7 breast
# MDA-MB-231 breast = test system: MDA-MB-231 breast
# MDA-MB-435 = test system: MDA-MB-435
# MOLT-4 leukemia = test system: MOLT-4 leukemia
# NCI-H226 lung = test system: NCI-H226 lung
# NCI-H23 lung = test system: NCI-H23 lung
# NCI-H460 lung = test system: NCI-H460 lung
# NCI-H522 lung = test system: NCI-H522 lung
# NCI/ADR-RES ovarian = test system: NCI/ADR-RES ovarian
# OVCAR-3 ovarian = test system: OVCAR-3 ovarian
# OVCAR-4 ovarian = test system: OVCAR-4 ovarian
# OVCAR-5 ovarian = test system: OVCAR-5 ovarian
# OVCAR-8 ovarian = test system: OVCAR-8 ovarian
# PC-3 prostate = test system: PC-3 prostate
# RPMI-8226 leukemia = test system: RPMI-8226 leukemia
# RXF 393 renal = test system: RXF 393 renal
# SF-268 CNS = test system: SF-268 CNS
# SF-295 CNS = test system: SF-295 CNS
# SF-539 CNS = test system: SF-539 CNS
# SK-MEL-2 melanoma = test system: SK-MEL-2 melanoma
# SK-MEL-28 melanoma = test system: SK-MEL-28 melanoma
# SK-MEL-5 melanoma = test system: SK-MEL-5 melanoma
# SK-OV-3 ovarian = test system: SK-OV-3 ovarian
# SN12C renal = test system: SN12C renal
# SNB-19 CNS = test system: SNB-19 CNS
# SNB-75 CNS = test system: SNB-75 CNS
# SR leukemia = test system: SR leukemia
# SW-620 colon = test system: SW-620 colon
# T-47D breast = test system: T-47D breast
# TK-10 renal = test system: TK-10 renal
# U251 CNS = test system: U251 CNS
# UACC-257 melanoma = test system: UACC-257 melanoma
# UACC-62 melanoma = test system: UACC-62 melanoma
# UO-31 renal = test system: UO-31 renal
structure (smiles),measurement,setting,value
Brc1cccc(-c2cc(-c3ccc4c(c3)OCCO4)[nH]n2)c1,GI50,786-0 renal,2.51 µM
same,TGI,786-0 renal,28.4 µM
same,GI50,A498 renal,0.563 µM
same,TGI,A498 renal,3.89 µM
same,GI50,A549 NSCLC,1.57 µM
same,TGI,A549 NSCLC,37.6 µM
same,GI50,ACHN renal,1.54 µM
same,TGI,ACHN renal,33.2 µM
same,GI50,BT-549 breast,1.62 µM
same,TGI,BT-549 breast,47.8 µM
same,GI50,CAKI-1 renal,0.953 µM
same,TGI,CAKI-1 renal,29.8 µM
same,GI50,CCRF-CEM leukemia,1.59 µM
same,TGI,CCRF-CEM leukemia,250 µM
same,GI50,COLO 205 colon,1.03 µM
same,TGI,COLO 205 colon,26 µM
same,GI50,DU-145 prostate,1.98 µM
same,TGI,DU-145 prostate,27 µM
same,GI50,EKVX NSCLC,7.21 µM
same,TGI,EKVX NSCLC,49.6 µM
same,GI50,HCC-2998 colon,3.92 µM
same,TGI,HCC-2998 colon,33.4 µM
same,GI50,HCT-116 colon,1.13 µM
same,TGI,HCT-116 colon,29.4 µM
same,GI50,HCT-15 colon,0.731 µM
same,TGI,HCT-15 colon,30.6 µM
same,GI50,HL-60(TB) leukemia,0.891 µM
same,TGI,HL-60(TB) leukemia,17.5 µM
same,GI50,HOP-62 NSCLC,1.38 µM
same,TGI,HOP-62 NSCLC,41.3 µM
same,GI50,HOP-92 NSCLC,4.31 µM
same,TGI,HOP-92 NSCLC,32.9 µM
same,GI50,HS 578T breast,1.25 µM
same,TGI,HS 578T breast,30.6 µM
same,GI50,HT29 colon,0.804 µM
same,TGI,HT29 colon,27.4 µM
same,GI50,IGROV1 ovarian,1.31 µM
same,TGI,IGROV1 ovarian,30.2 µM
same,GI50,K-562 leukemia,0.584 µM
same,TGI,K-562 leukemia,250 µM
same,GI50,KM12 colon,0.669 µM
same,TGI,KM12 colon,25.5 µM
same,GI50,LOX IMVI melanoma,1.53 µM
same,TGI,LOX IMVI melanoma,30.4 µM
same,GI50,M14 melanoma,0.729 µM
same,TGI,M14 melanoma,31.1 µM
same,GI50,MALME-3M melanoma,1.3 µM
same,TGI,MALME-3M melanoma,53.4 µM
same,GI50,MCF7 breast,1.06 µM
same,TGI,MCF7 breast,41.2 µM
same,GI50,MDA-MB-231 breast,3.65 µM
same,TGI,MDA-MB-231 breast,32.7 µM
same,GI50,MDA-MB-435,0.186 µM
same,TGI,MDA-MB-435,0.97 µM
same,GI50,MOLT-4 leukemia,1.09 µM
same,TGI,MOLT-4 leukemia,101 µM
same,GI50,NCI-H226 lung,12.1 µM
same,TGI,NCI-H226 lung,60.9 µM
same,GI50,NCI-H23 lung,3.46 µM
same,TGI,NCI-H23 lung,53.6 µM
same,GI50,NCI-H460 lung,0.877 µM
same,TGI,NCI-H460 lung,6.07 µM
same,GI50,NCI-H522 lung,0.755 µM
same,TGI,NCI-H522 lung,34.8 µM
same,GI50,NCI/ADR-RES ovarian,0.766 µM
same,TGI,NCI/ADR-RES ovarian,29.8 µM
same,GI50,OVCAR-3 ovarian,0.718 µM
same,TGI,OVCAR-3 ovarian,2.27 µM
same,GI50,OVCAR-4 ovarian,7.79 µM
same,TGI,OVCAR-4 ovarian,48.5 µM
same,GI50,OVCAR-5 ovarian,3.69 µM
same,TGI,OVCAR-5 ovarian,35.4 µM
same,GI50,OVCAR-8 ovarian,1.68 µM
same,TGI,OVCAR-8 ovarian,40.1 µM
same,GI50,PC-3 prostate,1.44 µM
same,TGI,PC-3 prostate,41.4 µM
same,GI50,RPMI-8226 leukemia,1.43 µM
same,TGI,RPMI-8226 leukemia,236 µM
same,GI50,RXF 393 renal,1.77 µM
same,TGI,RXF 393 renal,25.7 µM
same,GI50,SF-268 CNS,3.11 µM
same,TGI,SF-268 CNS,37.1 µM
same,GI50,SF-295 CNS,2.93 µM
same,TGI,SF-295 CNS,32.7 µM
same,GI50,SF-539 CNS,1.8 µM
same,TGI,SF-539 CNS,8.48 µM
same,GI50,SK-MEL-2 melanoma,1.74 µM
same,TGI,SK-MEL-2 melanoma,69.2 µM
same,GI50,SK-MEL-28 melanoma,11.2 µM
same,TGI,SK-MEL-28 melanoma,55.5 µM
same,GI50,SK-MEL-5 melanoma,1.17 µM
same,TGI,SK-MEL-5 melanoma,30.3 µM
same,GI50,SK-OV-3 ovarian,1.69 µM
same,TGI,SK-OV-3 ovarian,43.6 µM
same,GI50,SN12C renal,1.47 µM
same,TGI,SN12C renal,36.8 µM
same,GI50,SNB-19 CNS,3.05 µM
same,TGI,SNB-19 CNS,50.5 µM
same,GI50,SNB-75 CNS,0.531 µM
same,TGI,SNB-75 CNS,6.58 µM
same,GI50,SR leukemia,0.581 µM
same,TGI,SR leukemia,136 µM
same,GI50,SW-620 colon,0.785 µM
same,TGI,SW-620 colon,35.3 µM
same,GI50,T-47D breast,1.34 µM
same,TGI,T-47D breast,50.1 µM
same,GI50,TK-10 renal,3.3 µM
same,TGI,TK-10 renal,40.7 µM
same,GI50,U251 CNS,1.2 µM
same,TGI,U251 CNS,33.4 µM
same,GI50,UACC-257 melanoma,11.6 µM
same,TGI,UACC-257 melanoma,52.9 µM
same,GI50,UACC-62 melanoma,0.871 µM
same,TGI,UACC-62 melanoma,40.9 µM
same,GI50,UO-31 renal,4.24 µM
same,TGI,UO-31 renal,36.6 µM

# Source: PubChem BioAssay (NCI)
